Patent US20240408071A1, “NOVEL COMBINATION OF SEROTONIN RECEPTOR (5-HTR2B) ANTAGONIST AND AN IMMUNOMODULATOR AND CHEMOTHERAPEUTIC DRUGS FOR INHIBITION OF CANCER” (NATIONAL CENTRE FOR CELL SCIENCE, priority 2021, published 2024)
Entries after “also recorded” stand apart in the source; their conditions may differ.

Key:
[1] = system: PD-L1; experiment: Serum PD-L1 ELISA in MC38 tumor-bearing mice; format: in vivo, C57BL/6J mice; conditions: MC38 tumor-bearing mice, 5 mg/kg/day, 14 days after tumor inoculation (FIG. 13F)
Procedure: FIG. 13 depicts 5-HTR2B signaling promotes PD-L1 expression on the MC38 cell line in vitro: (A-B) MC38 cells are treated with 5-HTR2B agonist (BW-723C86-50 μM), serotonin (100 μM), and 5-HTR2B antagonist (RS-127445-50 μM) for 72 hours, and the PD-L1 expression was checked by flow cytometry and the percentage of PD-L1^+ MC38 cells was plotted. (C-D) MFI of PD-L1 from the above experiment were plotted as histogram overlay (C) or as statistical data points (D). (E) Relative PD-L1 mRNA expression in MC38 cells following BW-723C86 and RS-127445 treatment for 48 hours. Here the values are shown as a fold change as compared to control MC38 cells. […] All the statistical analysis was performed using either Student's ‘t’ test or two-way ANOVA using Sidak's multiple comparison test. *P<0.05; **P<0.01; […]; ****P<0.0001 Error bar represents mean±standard error of means (SEM).
Universal competitive serotonin ELISA kit was purchased from Novus biological (Catalog #NBP2-68127), and ELISA was performed according to the manufacturer's protocol. Mouse PD-L1 DuoSet ELISA kit was procured from the R&D System (Catalog #DY1019-05), and the ELISA was performed according to the manufacturer's guidelines.
(§1) To understand it, investigations were done on whether 5-HTR2B signaling also affects the surface expression of molecules that alters inflammatory and cytotoxic immune cells. Among different molecules, PD-L1 is of particular interest as it is an immune checkpoint ligand that affects cytotoxic T-cell responses toward cancer. […] (FIG. 13F).

[2] = system: PD-L1; experiment: PD-L1 expression on MC38 cells in vitro (flow cytometry, mRNA); format: cell-based, mouse; conditions: BW-723C86 50 μM, serotonin 100 μM, RS-127445 50 μM, 72 hours (mRNA 48 hours) (FIG. 13A-E)
Procedure: FIG. 13 depicts 5-HTR2B signaling promotes PD-L1 expression on the MC38 cell line in vitro: (A-B) MC38 cells are treated with 5-HTR2B agonist (BW-723C86-50 μM), serotonin (100 μM), and 5-HTR2B antagonist (RS-127445-50 μM) for 72 hours, and the PD-L1 expression was checked by flow cytometry and the percentage of PD-L1^+ MC38 cells was plotted. (C-D) MFI of PD-L1 from the above experiment were plotted as histogram overlay (C) or as statistical data points (D). (E) Relative PD-L1 mRNA expression in MC38 cells following BW-723C86 and RS-127445 treatment for 48 hours. Here the values are shown as a fold change as compared to control MC38 cells. (F) Serum PD-L1 level was measured by ELISA of naïve C57BL/6J mice, control MC38 tumor-bearing mice, BW-723C86 (5 mg/kg/day) treated MC38 tumor-bearing mice and RS-127445 (5 mg/kg/day) treated MC38 tumor-bearing mice after 14 days of tumor inoculation. All the statistical analysis was performed using either Student's ‘t’ test or two-way ANOVA using Sidak's multiple comparison test. *P<0.05; **P<0.01; […]; ****P<0.0001 Error bar represents mean±standard error of means (SEM).
as §1

[3] = system: MC38 colon cancer cells; experiment: MC38 colon tumor growth (tumor volume) in C57BL/6 mice; format: in vivo
Procedure: Tumor volumes were measured and plotted. (B) MC38 colon cancer cells were injected subcutaneously into the right flank of C57BL/6 mice. After seven days when tumors became palpable, one group was treated with 5-HTR7 antagonist SB-269970 (n=6 mice; 3 mg/kg/day) or left untreated (n=6 mice). Tumor volume was measured and plotted. (C) After seven days of the setting of tumor growth, one group was treated with a serotonin transporter blocker (SSRI) sertraline hydrochloride (n=6 mice; 15 mg/kg/week) or left untreated (n=6 mice). Tumor volume was measured and plotted. (D) C57BL/6 mice were given subcutaneously injected MC38 cells. After seven days of tumor growth, one group of mice was treated with different doses of 5-HTR2B antagonist SB-215505 (n=6). Tumor volume was measured and plotted. (E) C57BL/6 mice were given subcutaneously injected MC38 cells. After seven days of the tumor growth, one group of mice was treated with different doses of 5-HTR2B antagonist SB-215505 (n=6), one group treated with 5-HTR2B agonist BW-723C86 (n=6; 4 mg/kg/day). Tumor volume was measured and plotted. (F) MC38 cells were subcutaneously injected into C57BL/6 mice. After seven days when the tumor became palpable in mice, one group of mice was treated with FDA-approved 5-HTR2B antagonist cariprazine (Carispec; Sun pharma) via oral gavage (n=5 mice; dose 5 mg/kg body weight/day) or left untreated (n=5 mice). Tumor growth was measured and plotted. […] All the statistical analysis was performed using Student's ‘t’ test or two-way ANOVA using Sidak's multiple comparison test. *P<0.05; **P<0.01; ***P<0.00; ****P<0.0001 Error bar represents mean±standard error of means (SEM).

Structure (SMILES) | circulating free PD-L1 in the serum [1] | expression of PD-L1 in the colon cancer cells [2] | MC38 tumor growth ([3]; 5-HTR2B agonist 4 mg/kg/day (FIG. 7E)) | MC38 tumor growth ([3]; 4 mg/kg/day from day 7 after inoculation, vs untreated (FIG. 7A)) | effect in controlling tumor growth compared to SB-215505 ([3]; MC38 tumor, equivalent dose) | tumor growth, combination with 5-Fluorouracil ([3]; RS-127445 2 mg/kg/day + 5-Fluorouracil 10 mg/kg/alternate days, MC38 model (FIG. 16B)) | efficacy of combination with Irinotecan ([3]; RS-127445 2 mg/kg/day + Irinotecan 15 mg/kg/day for 5 days, subcutaneous colon cancer model (FIG. 16D)) | efficacy of combination with Oxaliplatin ([3]; RS-127445 2 mg/kg/day + Oxaliplatin 4 mg/kg/day for 5 days, subcutaneous colon cancer model (FIG. 16C)) | efficacy of combination with trifluorothymidine ([3]; RS-127445 2 mg/kg/day + trifluorothymidine 20 mg/kg/day (FIG. 16E))
CC(N)Cc1c[nH]c2ccc(OCc3cccs3)cc12 (centres unmarked) [BW-723C86] | increased the circulating free PD-L1 in the serum | increased the expression of PD-L1 | significantly promotes MC38 tumor growth |  |  |  |  |  | 
CC(C)c1cc(-c2ccc(F)c3ccccc23)nc(N)n1 [RS-127445] | diminished | reduced the expression of PD-L1 |  | efficiently control the tumor growth; also recorded: potent molecule in reducing the tumor burden | even more potent effect in controlling tumor growth | much better response by reducing tumor growth than any of them alone | significantly enhanced the efficacy of irinotecan or RS-127445 alone | significantly enhanced the efficacy of oxaliplatin or RS-127445 alone | not found any significant alterations in the efficacy
